{"source": "patent US7781420B2", "about": "“Use of clodronic acid for treatment podotrochlosis” (Omnimedic GbR, priority 2005, dated 2010)", "key": {"[1]": {"tested_on": "horses who suffer from podotrochlosis", "assay": "treatment of podotrochlosis with associated osteoporosis in horses by two to five intramuscular injections", "format": "in vivo, horse", "conditions": "for therapeutic success in the treatment of podotrochlosis with associated osteoporosis: intramuscular injections", "protocol": "To achieve the desired therapeutic success or else prophylactic success, a dosage regimen in which the pharmaceutical is administered by two to five intramuscular injections within a period of up to several days, such as approximately 3 consecutive days, but preferably within one day, must be adhered to. Here, the administration of the pharmaceutical may be effected in a dosage of, per injection, 0.125-2.5 mg, preferably 0.25-1 mg, particularly preferably approximately 0.6 mg of active ingredient/kg body weight. For a horse with a weight of 500 kg, a total dose of 250-2500 mg, preferably 400-1500 mg, especially preferably approximately 800 to 1000 mg of active ingredient, distributed over 2 to 5 injections, preferably 3 injections, is aimed at. With a horse with a weight of 500 kg, it is therefore especially preferable to administer 900 mg of active ingredient, divided over 3 injections of 300 mg each, within one day. The pharmaceutical is injected intramuscularly, preferably into the neck, chest and gluteal muscles of the horse. In the case of 3 injections, it is preferred to administer two injections into the neck muscles (on the left and right side), especially preferably approximately one hand's width under the crest and approximately one hand's width above the scapula, and one injection into the breast muscles. The 2 to 5 injections are expediently given directly one after the other.\nAfter approximately 14 days, a pronounced improvement of the clinical symptoms is observed in nearly all horses. After approximately 4-6 weeks, the clinical picture has stabilized and established such that the therapeutic success can be defined. After approximately 10 to 14 months, the clinical symptoms will, as a rule, deteriorate. The treatment may then be repeated once or more than once, with equally good success. In this manner, the treated horses can be kept free from lameness over several years.\nFor example, the therapeutic success in a gelding who had suffered from podotrochlosis and who had not been able to be ridden, let alone used as a sports horses for about 3 years was so good after employing the pharmaceutical described in accordance with the invention that the gelding could afterwards be used intensively and successfully for 6 years as a showjumper."}, "podotrochlosis": {"tested_on": "podotrochlosis", "conditions": "in vivo; cited from earlier work"}}, "data": [{"smiles": "O=P(O)(O)C(Cl)(Cl)P(=O)(O)O", "note": "[clodronic acid, (dichloromethylene)bis(phosphonic acid)]", "values": [{"measurement": "side effects", "setting": "[1]; at least 350 horses pretreated with conventional therapies without success", "value": "without suffering side effects"}, {"measurement": "time until pronounced improvement of the clinical symptoms is observed in nearly all horses", "setting": "[1]; horses, after treatment", "value": "approximately 14 days"}, {"measurement": "time until the clinical picture has stabilized and established", "setting": "[1]; horses, after treatment", "value": "4-6 weeks"}, {"measurement": "therapeutic success in the treatment of podotrochlosis with associated osteoporosis", "setting": "[1]; horses", "value": "outstanding therapeutic successes"}, {"measurement": "therapeutic success in the treatment of podotrochlosis with associated osteoporosis", "setting": "[1]; horses, listed as pharmaceutical described in accordance with the invention", "value": "successful therapy"}, {"measurement": "freedom from lameness", "setting": "[1]; many of the treated horses, regular use of the pharmaceutical", "value": "free from lameness for several years"}, {"measurement": "time used intensively and successfully as a showjumper after treatment", "setting": "[1]; single gelding, not able to be ridden for about 3 years before treatment", "value": 6, "unit": "years"}]}, {"smiles": "O=P(O)(O)C(Sc1ccc(Cl)cc1)P(=O)(O)O", "note": "[tiludronate]", "values": [{"measurement": "effect on podotrochlosis", "setting": "podotrochlosis", "value": "healing effect"}, {"measurement": "side effects", "setting": "podotrochlosis", "value": "substantial side effects such as colic"}]}]}
